Results reported in ChEMBL document CHEMBL4376876 (J Med Chem, 2020).

Each molecule was assayed on Mycobacterium tuberculosis (assay: Resistance factor, ratio of MIC for antimycobacterial activity against Mycobacterium tuberculosis H37Rv over expressing InhA to MIC for antimycobacterial activity against Mycobacterium tuberculosis H37Rv transfected with pMV261 empty vector).
Assay type: functional

Question: For CC(C)[C@H]1OC(=O)[C@H](C)[C@H](O)[C@H](Cc2cccnc2)NC(=O)[C@@H](NC(=O)c2ncccc2O)[C@@H](C)OC1=O, which Ratio is on record?
Answer: Its Ratio is 8.

Question: For CC[C@H]1OC(=O)[C@H](C)[C@H](O)[C@H](Cc2cccnc2)NC(=O)[C@@H](NC(=O)c2ncccc2O)[C@@H](C)OC1=O, which Ratio is on record?
Answer: The Ratio was >4.

Question: With C[C@H]1OC(=O)[C@@H](Cc2ccccc2)OC(=O)[C@H](C)[C@H](O)[C@H](Cc2cccnc2)NC(=O)[C@H]1NC(=O)c1ncccc1O as the molecule, how does the Ratio read?
Answer: Its Ratio is >4.

Question: With CC[C@H](C)[C@H]1OC(=O)[C@H](C)[C@H](O)[C@H](Cc2cccnc2)NC(=O)[C@@H](NC(=O)c2ncccc2O)[C@@H](C)OC1=O as the molecule, how does the Ratio read?
Answer: Its Ratio is 1.

Question: With NNC(=O)c1ccncc1 [ISONIAZID] as the molecule, how does the Ratio read?
Answer: The Ratio was 31.
